Values joined by “and” are separate entries in the source; they are usually repeats but may differ in a detail not shown here. Equal values may be shown once.
Legend:
[1] = molecular target: T1, γ-secretase (Homo sapiens (Human), UniProt P49768); assay: In vitro γ-secretase assay, solubilized γ-secretase, ECL; format: biochemical; details: Sb4 substrate
From the text: The γ-secretase cleaved Aβ product derived from C100Flag substrate was detected by a pair of antibodies (biotinylated 4G8 and ruthenylated G2-10*) while Sb4 cleaved product was detected by ruthenylated G2-10* alone (FIG. 10a) and quantified using electrochemiluminescence (ECL) technology.
An in vitro assay was based on the one previously reported by Li et al. (2000), except we utilized Sb4 substrate that eliminated the need for biotinylated antibody. […] All assays incorporate ruthenylated G2-10* antibody to detect 40-site cleavage of APP or recombinant Sb4 substrate and quantitated activity by measuring ECL.

[2] = molecular target: T2, γ-secretase (Mus musculus (Mouse), UniProt P49769); assay: Cell-based activity assay, N2A cells stably over-expressing APP; details: 24 hrs, Aβ40; read-out: Cell-based (nM), IC50
Protocol: (§1) The potency of two structurally different GSIs was assayed in four unique γ-secretase activity assays. IC50 values were determined from the dose response curves using a non-linear regression analysis in the Prism software. An in vitro assay was based on the one previously reported by Li et al. (2000), except we utilized Sb4 substrate that eliminated the need for biotinylated antibody. The cell-based activity assay used N2A mouse neuroblastoma cells stably over-expressing APP and a biotinylated 4G8 antibody that binds the C-terminus of the amyloid beta peptide. The exo-cell assay incubated HeLa cells simultaneously with GSI, Sb4 substrate as well as 0.25% CHAPSO detergent prior to detecting substrate cleavage. Finally, the extended exo-cell assay first incubated HeLa cells with GSI for 24 hrs. Subsequently, the cells were washed 1× in PBS and then incubated with Sb4 substrate and CHAPSO detergent. The assay was then carried out exactly as described for the original exo-cell method. All assays incorporate ruthenylated G2-10* antibody to detect 40-site cleavage of APP or recombinant Sb4 substrate and quantitated activity by measuring ECL. The latter assays were performed as previously described (Li et al., 2000). In the in vitro assay, recombinant Sb4 substrate was incubated for 2.5 hours at 37° C. in pH 7.0 PIPES buffer in the presence of 0.25% CHAPSO detergent and solubilized γ-secretase at a final concentration of 40 ng/ul. The detection of cleaved substrate was determined using ruthenylated G2-10* antibody. Since the Sb4 substrate is biotinylated additional 6E10 biotinylated antibody used in earlier assays is not required. In the cell-based assay, N2A mouse neuroblastoma cells that stably overexpress amyloid precursor protein were incubated with γ-secretase inhibitors in a final concentration of 1% DMSO for 24 hrs. Following incubation, the supernatant was removed from the cells and assayed for Aβ40, the cleaved APP product, using ruthenylated G2-10* antibody as well as biotinylated 4G8 antibody.

[3] = molecular target: T1, γ-secretase; assay: Exo-cell γ-secretase assay, HeLa cells, Sb4 substrate; format: cell-based
Protocol: Therefore, HeLa cells were first incubated with Sb4 substrate, as well as CHAPSO detergent as depicted in FIG. 14c. Cells were seeded at their indicated concentration in 96-well plates and allowed to attach overnight. The next day, media was removed and cells were washed once with PBS. Fresh media was then added containing 0.25% CHAPSO detergent, Sb4 substrate to a final concentration of 1 μM, and 1% DMSO or γ-secretase inhibitor. This was incubated for 2.5 hours at 37° C. Media was removed and cell debris was pelleted from this media for 5 min. at 3,500 rpm. Supernatant was then added to ruthenylated G2-10* antibody that recognizes cleaved product, but not uncleaved substrate. This was incubated for an additional 2 hours at room temperature. Finally, magnetic streptavidin beads were added to a final concentration of 80 μg/ml and incubated for 30 min. at room temperature. Assay buffer was added to the samples and γ-secretase-mediated cleavage of substrate was monitored using electrochemiluminescence (ECL) (Li et al., 2000). (FIG. 14c).
as §1

[4] = molecular target: T1, γ-secretase; assay: Extended exo-cell γ-secretase assay, HeLa cells; format: cell-based; details: 24 hrs pretreatment; read-out: Extended Exo-Cell (nM), IC50
Protocol: as §1, with “In the cell-based assay, N2A mouse neuroblastoma cells that stably overexpress amyloid precursor protein were incubated with γ-secretase inhibitors in a final concentration of 1% DMSO for 24 hrs. Following incubation, the supernatant was removed from the cells and assayed for Aβ40, the cleaved APP product, using ruthenylated G2-10* antibody as well as biotinylated 4G8 antibody.” left out
The exo-cell assay was adapted to monitor real-time γ-secretase activity and inhibition over extended times of pretreatment regimens. […] This modified, extended treatment exo-cell assay is capable of quantifying remaining γ-secretase activity following drug treatment on virtually any cell type. The IC50 values for Compound E and GSI-34 were calculated using the extended exo-cell assay (Table 3 and FIG. 15d). […]

[5] = system: A20 mouse lymphoma cells; assay: Lymphoma cell proliferation assay, [3H]thymidine incorporation; format: cell-based; details: 48 hours
Protocol: For a lymphoma cell proliferation assay, A20 mouse lymphoma cells were seeded in a 96-well plate at a concentration of 5×10^5 cells/ml in 100 μl RPMI media containing 2% fetal bovine serum. An additional 100 μl of media containing DMSO or γ-secretase inhibitor was added and incubated for 48 hours at 37° C. After this incubation, the cells were incubated for 5 hours with 2 μCi/ml [^3H]thymidine at 37° C. Proliferative response was then evaluated by harvesting the tritiated DNA from cells using a Skatron cell harvester and proliferation assessed as a function of [^3H]thymidine incorporation measured on a β-counter.

[6] = molecular target: T2, γ-secretase; assay: Cellular γ-secretase activity, secreted Aβ40 from N2A APP stable cells; format: cell-based; details: 48 hrs
Protocol: FIG. 5. […] The conditioned media were collected and secreted Aβ40 was measured with 6E10/G2-10 antibodies (mean±SEM; n=3). The activities of the peptide treatments were normalized to the DMSO treatment. […] The same experiments were performed as FIG. 5c. The cell lysates were analyzed by CT-15 antibody. Upper panel: full length APP. Lower panel: CTFs. […] The ΔE-Notch1 (a Notch construct with deletion of the extracellular portion and tagged by Myc) was transfected into HEK293 cells.
After transfection or compound treatment, conditioned cell media were collected and diluted in RIPA buffer. Secreted Aβ peptides were detected by ECL assay using biotinylated 6E10 and ruthenylated G2-10 antibodies.

[7] = molecular target: T3, γ-secretase (Homo sapiens (Human), UniProt P49768+Q92542); assay: In vitro γ-secretase assay, HeLa membrane, APP-derived substrates, ECL detection; format: biochemical
Protocol: The recombinant proteins were incubated with γ-secretase (40 μg/ml) in the presence or absence of 1 μM γ-secretase inhibitor L-685,458 (CAS [292632-98-5], shown below). The reaction mixture contains 0.25% 3[(3-cholamidopropyl) dimethylammonio]-2-hydroxypropanesulfonic acid (CHAPSO), 0.1 μg/μl BSA, protease inhibitor, 50 mM PIPES, pH 7.0, 5 mM MgCl2, 5 mM CaCl2 and 150 mM KCl. The reaction was incubated for 2.5 hr at 37° C. and stopped by adding RIPA buffer (150 mM NaCl, 1.0% NP-40, 0.5% sodium
[drawing 1] deoxycholate, 0.1% SDS, 50 mM Tris HCl, pH 8.0). The products were detected with various antibody combinations as previously described (Lai et al., 2003; J. Biol. Chem., 278: 22475-22481; Li et al., 2000, Proc. Natl. Acad. Sci. USA, 97: 6138-6143; Yin et al., 2007, J. Biol. Chem., 282:23639-23644) using electrochemiluminescence (ECL). The amount of product was determined using synthetic peptide or recombinant standards. The Km and Vmax were determined from the Michaelis-Menten equation Michaelis-Menten Kinetics (ν=Vm[S]/([…]; ν: initial rate; Vm: maximum velocity; Km: the Michaelis-Menten constant, S: substrate). P-values were calculated from Student t-test. 7.1.5 Cell-Based Aβ Production Assay and Western Blot

[8] = molecular target: T3, γ-secretase; assay: In vitro γ-secretase cleavage of Notch1 peptide substrate, HeLa membrane, Val1744 antibody; format: biochemical
Protocol: FIG. 4. […] Various concentrations of inhibitor were incubated with APP substrate (S4) or Notch peptide substrate containing the C-terminal biotinylated transmembrane domain of Notch1 and HeLa cell membrane in the presence of 0.25% CHAPSO. Aβ40 was detected by G2-10 antibody. […] Activities are expressed as percentage relative to reading that was produced in DMSO control. […] Various concentrations of S4 substrate were incubated with HeLa membrane in fixed concentrations of inhibitor as indicated. The double reciprocal velocity (1/v) and substrate concentrations (1/S) are plotted to determine the type of inhibition. […] Assays were conducted as described in FIG. 4A. […] The labeled samples were solubilized with RIPA buffer. Biotinylated proteins were captured with streptavidin-agarose and probed by immunoblotting using antibodies against biotin, PS1-CTF, PS1-NTF, Nicastrin, PEN-2 and APH-1a. HeLa cell membrane proteins were directly loaded onto lanes indicated by an arrow in the PEN-2 and APH-1a blots as positive controls. […] Upper panel: PS1-NTF; Lower panel: PS1-CTF. […] Rev.

[9] = molecular target: T2, γ-secretase; assay: In vitro γ-secretase activity from mouse brain membrane; format: biochemical
Protocol: (§2) FIG. 3. Effect of the inhibitory domain on in vitro γ-secretase activity. […] The γ-secretase cleavage site is indicated by an arrow between orange and blue shades. The Aβ17-23 region is marked by dotted square. (B) The kinetic analyses of γ-secretase reactivity with βCTF and βCTFΔ substrates. […] The product Aβ40 was assayed with biotinylated 6E10 and ruthenylated G2-10 antibodies by ECL. […] Note: […] The product Aβ38 was assayed with biotinylated 6E10 and ruthenylated Aβ38 antibodies (purchased from Dr. […]) (data represent the mean of duplicates with variance<10%). (E) The effect of an inhibitory domain on γ-secretase activity for ACID production. HEK293 cell membrane was prepared from cells that have been transfected with β[…] et al., 1999) and βCTFΔ(SPA4CTΔ) constructs for 48 hours. Cell membranes (2 mg/ml) were incubated in the absence and presence of 2 μM L-685,458 and then analyzed by Western blotting with CT-15 antibody (Chen et al., 2002). It was next determined whether γ-secretase from other sources has the same preference for the βCTFΔ substrate. […] Product formation was monitored by G2-10 and G2-11 antibodies, respectively. […] In addition, the γ-secretase activity was assayed for Aβ38 production and ε-cleavage (FIGS. 3D and 3E). The Aβ38-site cleavage was detected with a combination of biotinylated 6E10 and ruthenylated anti-Aβ38 antibodies. […]

[10] = molecular target: T1, γ-secretase; assay: AICD production (ε-cleavage), membranes of transfected HEK293 cells, Western blot; format: biochemical
Protocol: as §2

O=C(COc1ccc(F)cc1)Nc1ccc2c(c1)CC1CCC(C2)C1NS(=O)(=O)c1ccc(Cl)s1 (centres unmarked) [GSI-34]
IC50 [1]: 1 nM | IC50 [2]: 32.4 nM | IC50 ([3]; ECL detection, read-out: Exo-Cell (nM), IC50): 5.9 nM | IC50 ([3]; HTRF detection, read-out: IC50, exo-cell assay): 5.4 nM | IC50 [4]: 38.7 nM and 39 nM | reduction of cellular proliferation ([5]; 300 nM): 30% | inhibition of cellular proliferation [5]: able to inhibit cellular proliferation

COC(=O)CC[C@@H](NC(=O)[C@H](N)CC(=O)OC)C(=O)N[C@H](C)C(=O)N[C@H](Cc1ccccc1)C(=O)N[C@H](Cc1ccccc1)C(=O)N[C@@H](C(=O)N[C@H](CC(C)C)C(N)=O)C(C)C [RI-PM-1]
inhibition at 100 µM ([6]; 100 μM, read-out: inhibition of the production of Aβ): 70% | effect on secreted Aβ species ([6]; 100, 60 and 30 μM): reduces secreted Aβ species in a dose dependent manner

VKSEPVEPPL [S2-site derived Notch peptide, N-terminal residues of NEXT]
inhibition of γ-secretase activity, APP processing [7]: did not inhibit | inhibition of γ-secretase activity, Notch processing [8]: did not inhibit

B1: βCTFΔ: βCTF in which the Aβ17-23 inhibitory domain is deleted (protein, listed as Homo sapiens)
chain: GSHMDAEFRHDSGYEVHHQKVGSNKGAIIGLMVGGVVIATVIVITLVMLKKKQYTSIHHGVVEVDAAVTPEERHLSKMQQNGYENPTYKFFEQMQNDYKDDDDK
reaction rate of hydrolysis compared to βCTF, 40-site ([9]; G2-10): 25 times | reaction rate of hydrolysis compared to βCTF, 42-site ([9]; G2-11): 11 times | effect of domain deletion on ε-cleavage (AICD) [10]: no effect
